Measured values published in US20190307820A1, “COMPOSITIONS AND METHODS OF USING STAT1/3 INHIBITORS WITH ONCOLYTIC HERPES VIRUS” (priority 2016, published 2019).

Key:
[1] = test system: oHSV-1 (G207) in BV2 cells; assay: G207 replication in BV2 cells with chemical inhibitors, plaque forming assay; type: cell-based, HSV-1
Method: (§1) FIG. 12A contains bar graphs showing the results of BV2 cells that were pre-treated with indicated chemical compounds for 1-2 hours and then infected with oHSV-1 at an MOI of 1. Viruses were harvested after 48 hours of oHSV-1 (G207) and indicated chemical inhibitor treatment.
as §1, with “12F is a” for “12A contains”, “graph” for “graphs”, “treatment. After 48 hours of treatment with oHSV-1 (G207) and C16, viruses were harvested and titrated by plaque forming assay on vero cells.” for “treatment.”
U87 (5×104) alone or U87+microglia co-culture (5×104+5×104) or BV2 microglia cells (5×104) alone were seeded into a 24-well plate. After overnight incubation (to allow the cells to attach), cells were pretreated with indicated concentration of NFkB inhibitor, Bay-11 (Santa Cruz, Canada) or an indicated concentration of imidazolo-oxindole derivative C16 (Milipore, Canada) or vehicle for 1-2 hours. The cells were then infected with oHSV-1 (G207 or HrR3) virus at a MOI of 1 in presence of chemical inhibitors for another 2 days. The viruses were harvested and titrated in vero cells by plaque forming assay in 12-well plates by triplicates.
The effects of a PKR inhibitor (C16), a NFkappaB inhibitor (Bay11), and an iNOS inhibitor (aminoguanidine hydrochloride) were tested on G207 replication in BV2 cells (Example 15). […] To verify that C16-mediated viral gene transcriptional augmentation is not due to deletions in ICP34.5 and/or ICP6 in G207, the effect of C16 on wild type (KOS) and ICP6 mutated (HrR3) HSV-1 infected BV2 cells was also examined. […] Finally, whether C16 can overcome this microglia-mediated suppression of viral replication in glioma cells was examined.

ICP4 = assay: Western blot of ICP4 in HSV-1 infected microglia cells; type: cell-based; conditions: G207 infected; 1 μM C16, 1 μM Bay11 or 100 μM AG; 24 hours
Method: FIG. 12B depicts an electrophoresis gel showing total proteins that were harvested from G2O7 infected microglia cells at 24 hours post treatment with either 1 μM of C16, 1 μM of Bay11, or 100 μM of AG. ICP27, ICP4, and […] expression was measured by western blot assay. U87 and MG co-culture were pretreated with 0.5 μM of C16 for 1 hour.
Total protein was harvested with sample buffer (125 mM Tris-HCL, 50% Glycerol, […] and 5% 2-mercaptoethanol) and boiled for 5 minutes. Protein samples were subjected to SDS-PAGE (8% gel), transferred to nitrocellulose membranes and blocked in 5% nonfat milk (Bio Rad) in TBS-Tween 20 (TBS-T) for 1 hour at room temperature. The membranes were then incubated with primary antibody against β-actin at 1:1000 (Cell Signaling, Danvers, Mass.) or anti-STAT1 antibody at 1:1000 (Cell Signaling, Danvers, Mass.) or anti-STAT3 antibody at 1:1000 (Cell Signaling, Danvers, Mass.) or anti-phospho STAT1 antibody (Tyr701) at 1:1000 (Cell Signaling, Danvers, Mass.) or anti-phospho STAT3 antibody (Tyr705) at 1:1500 (Cell Signaling, Danvers, Mass.) or anti-phosphor-eIF2a antibody (ser51) at 1:1000 (Cell Signaling, Danvers, Mass.) or anti-ICP27 antibody at 1:1000 (Abcam, Cambridge, Mass.) or anti-ICP4 antibody at 1:750 (Abcam, Cambridge, Mass.) for overnight at 4° C. […] Band density was measured by using ImageJ software (NIH, Bethesda, Md.). […]

LnCap cells = assay: MTT cytotoxicity assay, LnCap cells; type: cell-based; conditions: Homo sapiens, 72 hours, read-out: Inhibitory concentration 50% (IC50)
Method: FIGS. 1A-1B are graphs that show an anti-tumor effect of nifuroxazide. (FIG. 1A) Cells were treated with indicated concentration of nifuroxazide for 72 hours. Cytotoxicity was measured by using MTT assay. (FIG. 1B) Subcutaneously U87 tumor bearing mice were peritoneally injected with indicated doses of nifuroxazide. Tumor size was measured using calipers at day 7 post nifuroxazide treatment.
In this example, the antitumor effect of nifuroxazide is evaluated in different tumor cells. Cells were treated with nifuroxazide for 72 hours (FIG. 1A). […] To verify the anti-tumor efficacy of nifuroxazide in vivo, animals with subcutaneous U87 tumor implants were injected in the peritoneum with vehicle, 1 mg/kg nifuroxazide and 50 mg/kg nifuroxazide. […] Tumor volume was reduced around 25% and 60% after 7 days treatment with 1 mg/kg nifuroxazide and 50 mg/kg nifuroxazide respectively (FIG. 1B).
Cells were seeded in a 96-well plate at a density of 1×104 (U87). After overnight incubation, cells were treated with only vehicle or indicated MOI of virus or indicated concentration of drugs or reagents. After 2 to 3 days of treatment cell viability was measured by MTT assay (Sigma, Canada) according to the manufacturer's instruction. […] After overnight incubation with lysis buffer, cell viability was measured at 595 nm using a plate reader (Envision 2103 Multilabel reader, Perkin Elmer).

SMILES	enhanced the replication ([1]; 1 μM of C16, G207 MOI of 1, 48 hours)	enhanced the replication ([1]; 10 μM of C16, G207 MOI of 1, 48 hours)	upregulated expression of ICP4 (ICP4)	IC50 (LnCap cells)
O=C1Nc2ccc3ncsc3c2/C1=C/c1c[nH]cn1 [C16, 6,8-Dihydro-8-(1H-imidazol-5-ylmethylene)-7H-pyrrolo[2,3-g]benzothiazol-7-one]	9 times	8 times	1.8 fold	–
O=C(N/N=C/c1ccc([N+](=O)[O-])o1)c1ccc(O)cc1 [nifuroxazide, Benzoic acid, 4-hydroxy-, [(5-nitro-2-furanyl)metylene]hydrazide]	–	–	–	~5 µM
